Bridge positions count the residues as written; N and C are the ends. Square brackets hold non-standard residues; d marks the D form. Peptide text beside a SMILES is read from it. * marks the point of attachment. Piperazin2one(3S-Bu,6R-CO) = CCCC[C@@H]1NC[C@H](C(=O)*)NC1=O; X1 = N=C(N)NCCC[C@H]1C(=O)N[C@@H](C(N)=O)CN1*; Nle = CCCC[C@H](N)C(=O)O
Conditions: rat, in vivo, iv, 2 mg/kg

Compound	AUC [nM·h]	Vd [L/kg]	clearance [L/h/kg]	half-life [min]
CCCC[C@@H]1NC[C@H](C(=O)N[C@H]2CSSC[C@@H](C(=O)N[C@@H](Cc3ccc(O)cc3)C(=O)N3C[C@H](C(N)=O)NC(=O)[C@@H]3CCCNC(=N)N)NC(=O)[C@H](CO)NC(=O)[C@H]([C@@H](C)CC)NC(=O)[C@H](CCCNC(=N)N)NC(=O)[C@H](CC(=O)O)NC(=O)[C@H](CCCC)NC(=O)[C@H](CCCNC(=N)N)NC(=O)CNC(=O)CNC(=O)[C@H](Cc3ccccc3)NC(=O)[C@@H](Cc3c[nH]cn3)NC2=O)NC1=O [1-28] ({Piperazin2one(3S-Bu,6R-CO)}-C[dH]FGGR[Nle]DRISCY-X1; disulfide 1-12)	351	1.1	3.06	24
CCCC[C@@H]1NC[C@H](C(=O)N[C@H]2CSSC[C@@H](C(=O)N[C@@H](Cc3ccc(O)cc3)C(=O)N3C[C@H](C(N)=O)NC(=O)[C@@H]3CCCNC(=N)N)NC(=O)[C@H](CO)NC(=O)[C@H]([C@@H](C)CC)NC(=O)[C@H](CCCNC(=N)N)NC(=O)[C@H](CC(=O)O)NC(=O)[C@H](CCCC)NC(=O)[C@H](CCCNC(=N)N)NC(=O)CNC(=O)[C@@H](C)NC(=O)[C@H](Cc3ccccc3)NC(=O)[C@H](Cc3c[nH]cn3)NC2=O)NC1=O [1-68]	478	0.5	2.4	18
CCCC[C@@H]1NC[C@H](C(=O)N[C@H]2CSSC[C@@H](C(=O)N[C@@H](Cc3ccc(O)cc3)C(=O)N3C[C@H](C(N)=O)NC(=O)[C@@H]3CCCNC(=N)N)NC(=O)[C@H](CO)NC(=O)[C@H]([C@@H](C)CC)NC(=O)[C@H](CCCNC(=N)N)NC(=O)[C@H](CC(=O)O)NC(=O)[C@H](CCCC)NC(=O)[C@@H](CCCNC(=N)N)NC(=O)CNC(=O)CNC(=O)[C@H](Cc3ccccc3)NC(=O)[C@H](Cc3c[nH]cn3)NC2=O)NC1=O [1-42] ({Piperazin2one(3S-Bu,6R-CO)}-CHFGG[dR][Nle]DRISCY-X1; disulfide 1-12)	369	0.7	3	18
CCCC[C@@H]1NC[C@H](C(=O)N[C@H]2CSSC[C@@H](C(=O)N[C@@H](Cc3ccc(O)cc3)C(=O)N3C[C@H](C(N)=O)NC(=O)[C@@H]3CCCNC(=N)N)NC(=O)[C@H](CO)NC(=O)[C@H]([C@@H](C)CC)NC(=O)[C@H](CCCNC(=N)N)NC(=O)[C@H](C)NC(=O)[C@H](CCCC)NC(=O)[C@H](CCCNC(=N)N)NC(=O)CNC(=O)CNC(=O)[C@H](Cc3ccccc3)NC(=O)[C@H](Cc3c[nH]cn3)NC2=O)NC1=O [1-35]	10	57	111	24
CCCC[C@@H]1NC[C@H](C(=O)N[C@H]2CSSC[C@@H](C(=O)N[C@@H](Cc3ccc(O)cc3)C(=O)N3C[C@H](C(N)=O)NC(=O)[C@@H]3CCCNC(=N)N)NC(=O)[C@H](CO)NC(=O)[C@H]([C@@H](C)CC)NC(=O)[C@@H](CCCNC(=N)N)NC(=O)[C@H](CC(=O)O)NC(=O)[C@H](CCCC)NC(=O)[C@H](CCCNC(=N)N)NC(=O)CNC(=O)CNC(=O)[C@H](Cc3ccccc3)NC(=O)[C@H](Cc3c[nH]cn3)NC2=O)NC1=O [1-45] ({Piperazin2one(3S-Bu,6R-CO)}-CHFGGR[Nle]D[dR]ISCY-X1; disulfide 1-12)	850	0.3	1.38	18
CCCC[C@@H]1NC[C@H](C(=O)N[C@H]2CSSC[C@@H](C(=O)N[C@@H](Cc3ccc(O)cc3)C(=O)N3C[C@H](C(N)=O)NC(=O)[C@@H]3CCCNC(=N)N)NC(=O)[C@H](CO)NC(=O)[C@H]([C@@H](C)CC)NC(=O)[C@H](CCCNC(=N)N)NC(=O)[C@H](CC(=O)O)NC(=O)[C@H](CCCC)NC(=O)[C@H](CCCNC(=N)N)NC(=O)CNC(=O)CNC(=O)[C@@H](Cc3ccccc3)NC(=O)[C@H](Cc3c[nH]cn3)NC2=O)NC1=O [1-39] ({Piperazin2one(3S-Bu,6R-CO)}-CH[dF]GGR[Nle]DRISCY-X1; disulfide 1-12)	142	2.8	8.04	18

Source: patent US8580747B2, “Cyclic natriuretic peptide constructs” (Palatin Technologies, Inc., priority 2006, dated 2013)
